Experimental data reported in patent US20090005384A1, “Method for Producing Adsorptive Porous Body” (Kowa Co., Ltd, priority 2005, published 2009).

Columns and labels:
[1] = cited from earlier work
[2] = test system: interleukin-lp production; conditions: known from Patent Document 1; cited from earlier work
[3] = Adsorption test to porous material; type: physicochemical; conditions: for Amount of adsorbed Compound A: shaken for two hours
Procedure: To a solution prepared by completely dissolving 1.5 mg of Compound A in 1.5 mL of dichloromethane, 15 mg of porous material (light anhydrous silicic acid (Sylysia 350, produced by Fuji Silysia Chemical Co., Ltd.) or silicon dioxide (Sylysia 530, produced by Fuji Silysia Chemical Co., Ltd.) was dispersed, and this mixture was shaken for two hours using Roter RT-50 (TAITEC) and an amount of Compound A which adsorbed simply to the light anhydrous silicic acid or silicon dioxide (μg/mg porous material) was calculated by measuring the absorbance (280 nm) of a filtrate obtained by filtering with a membrane filter (0.45 μm PTFE). The amount of Compound A which adsorbed simply to the light anhydrous silicic acid or silicon dioxide ([…] porous material) was calculated by the following computational expression.
Concentration of Compound A in the filtrate (μg/mL)=ABS÷Slope of analytical curve×Dilution ratio
Here, ABS represents the absorbance.
Amount of adsorbed Compound A (g/mg porous material)=(Concentration of Compound A before the porous material was dispersed (g/mL)−Concentration of Compound A in the filtrate (g/mL))×Volume of Compound A solution (mL)÷Mass of porous material (mg)
Calculation was also conducted using ethanol in place of dichloromethane as a comparison.

[4] = Differential scanning calorimetry analysis; type: physicochemical; conditions: when dichloromethane was used

CSc1ccc(-c2nn(Cc3ccccc3)c(=O)cc2-c2ccc(Cl)cc2)cc1 [Compound A, 2-benzyl-5-(4-chlorophenyl)-6-[4-(methylthio)phenyl]-2H-pyridazin-3-one]
Solubility in water [1]: extremely insoluble | interleukin-lp production suppressive effect [2]: excellent | Amount of adsorbed Compound A ([3]; Dichloromethane, light anhydrous silicic acid (Sylysia 350)): 17.6 μg/mg porous material | Amount of adsorbed Compound A ([3]; Dichloromethane, silicon dioxide (Sylysia 530)): 24.8 μg/mg porous material | Amount of adsorbed Compound A ([3]; Ethanol, light anhydrous silicic acid (Sylysia 350)): 0.0 μg/mg porous material | Amount of adsorbed Compound A ([3]; Ethanol, silicon dioxide (Sylysia 530)): 0.0 μg/mg porous material | Adsorption of Compound A to the porous material (in words) ([3]; dichloromethane, light anhydrous silicic acid): adsorbed | Adsorption of Compound A to the porous material (in words) ([3]; dichloromethane, silicon dioxide): adsorbed | Adsorption of Compound A to the porous material (in words) ([3]; ethanol, light anhydrous silicic acid): did not adsorb | Adsorption of Compound A to the porous material (in words) ([3]; ethanol, silicon dioxide): did not adsorb | Solid state of Compound A [4]: existed in amorphous state
